Measured values as given in patent US6632981B1, “DNA sequences encoding polypeptides having beta-1,3-glucanase activity” (Novartis Finance Corporation, priority 1988, dated 2003).

Assays:
[1] = test system: chemically regulatable chimeric genes coding for GUS, AHAS or BT; experiment: Primer extension assay for mRNA of chemically regulatable chimeric genes; assay type: in vivo; conditions: callus or regenerated plant material from transgenic plants; level proportional to amount of regulator applied
Procedure: 50 g of total RNA is lyophilized in a 500 l Eppendorf tube. The RNA is resuspended in 30 l of radiolabeled probe solution and heated to 70′ C. for 10 minutes. The tube is slowly cooled to 37° C. and allowed to incubate overnight. Without removing the tube from the 37° C. water bath, 2 l of 10×reverse-transcriptase buffer (500 mM Tris-HCl, pH 7.5, 400 mM KCl, 30 mM MgCl2), 1 l 5 mg/ml bovine serum albumin, 5 l 100 mM dithiothreitol, 5 l 10×dNTPs (10 mM of each dNTP in H2O), 3 l H 20, 2 l RNasin (80 units), and 2 l reverse transcriptase (400 units) are added and the reaction is incubated at 37° C. for 30 minutes. To stop the reaction, 5 l of 3 M sodium acetate, pH 5, and 150 l absolute ethanol are added. The tube is left at −20° C. for 30 minutes, the precipitate is collected by centrifugation, washed with 80% ethanol and allowed to air-dry. The precipitate is resuspended in 10-20 l of loading dye (90% formamide, 0.05% bromophenol blue, 0.05% xylene cyanol, 1 mM EDTA) and the extension products are separated on a 6% sequencing gel (Maniatis, T. et al., supra). Extension products are visualized by autoradiography.
Plant materials induced and harvested as in Examples 140 to 142 are assayed for the induction of mRNA species by the isolation of RNA and the primer extension assay as described in Example 6.
The level of mRNA is proportional to the amount of regulator applied.

[2] = test system: cucumber chitinase protein; experiment: Cucumber chitinase ELISA in transgenic plants carrying cucumber chitinase genomic constructs after leaf treatment; assay type: in vivo, tobacco; parameters: key: —: Indicates that sample has no detectable level of chitinase protein
Procedure: Once the transgenic plants are transferred to soil, they are grown 4-5 weeks before treatment. The following solutions are applied to the leaves with sterile paintbrushes:
3. Methyl benzo-1,2,3-thiadiazole-7-carboxylate. The solution is made by resuspending a wettable powder containing a formulation of the chemical with 25% active ingredient in sterile water at a concentration of 1 mg/ml.
4. Methyl 2,6-dichloroisonicotinate, prepared as above. Alternatively, 30 ul of 10 mM sodium phosphate buffer, pH 7.0, or 30 ul of the same buffer containing tobacco mosaic virus (50-100 pfu/30 ul) is applied to the leaves which have been sprinkled with carborundum. The buffers are distributed over the whole treated leaf by gentle rubbing.
The plants are allowed to continue to grow for seven days. The treated leaves are then harvested, frozen in liquid nitrogen and stored at −80° C. until they are assayed.
Frozen leaf tissue is ground in a mortar with a pestle in the presence of liquid nitrogen to produce a fine powder. 0.33 g of each tissue sample is added to 1 ml extraction buffer (50 mM Tris-HCl, pH 8.5, 0.2M 2-mercaptoethanol, 2 mM phenyl methyl sulfonyl fluoride, 2 mM benzamidine, 10 mM epsilon-aminocaproic acid, 1 mM leueptine) and the sample homogenized for one minute with an Ultra Turrax Mixer (shaft #S25N-8G, Tekmar Co. Cincinnati, Ohio). The samples are then centrifuged at 48,000×g for fifteen minutes at 4° C. and the supernatant removed from the pelleted material. The extracts are diluted at least 1:50 in ELISA diluent (101 mM sodium phosphate, pH 7.4, 140 mM sodium chloride, 0.05% Tween 20, 0.02% sodium azide, 1% BSA).
A microtiter plate is coated with monoclonal antibody specific to the cucumber chitinase protein at 2 ug/ml in borate-buffered saline (100 mM boric acid, 25mM sodium borate, 75 mM sodium chloride; pH 8.5) using 50 ul per well. The plate is incubated overnight at 4° C. The plate is washed with ELISA wash buffer (10 mM Tris-HCl, pH 8.0, 0.05% Tween 20, 3 mM sodium azide) and BSA blocking solution (10 mM sodium phosphate, pH 7.4, 140 mM sodium chloride, 0.02% sodium azide, 1% BSA) is added to completely cover each well. Incubation is for at least 30 minutes at room temperature.
The microtiter plate is washed with ELISA wash buffer and 50 ul of extract is added to the appropriate well. 50 ul of each of 10 chitinase protein standards (ranging from 0 ng/ml to 31.64 ng/ml) was also added to the appropriate well and the plate is incubated for two hours at 4° C. The plate is washed with ELISA wash buffer and 50 ul of rabbit polyclonal antibody to the cucumber chitainase protein (diluted 1:15,000 in ELISA diluent) is added to the well and incubated for one hour at 37° C. After washing with ELISA wash buffer, 50 ul of goat anti-rabbit conjugated to alkaline phosphatase (1:500 in ELISA diluent) is added to each well and incubated at 37° C. for one hour. The plate is then washed and 50 ul alkaline phosphatase substrate solution (0.6 mg/ml p-nitrophenyl phosphate in 0.5 mM magnesium chloride and 10% diethanolamine) is added to each well. After a 30 minute incubation at room temperature, 50 ul of 3N sodium hydroxide is added to each well to stop the reaction.
The plate is read at 405 nm and 492 nm on an HP Genenchem ELISA plate reader. The output values are expressed as A(405 nm)-A(492 nm)−0.092 to allow for correction of p-nitrophenyl phosphate as substrate. The chitinase standards for each plate are graphed logarithmically. The amount of chitinase protein in each sample is determined from the standard curve. If the amount of chitinase in any sample is close to the upper limit of the curve, the sample is assayed again at a greater dilution. Final results are expressed in the table below in ug chitinase per gram tissue.

O=C(O)c1ccccc1O [Salicylic acid, salicylic acid]
0.555 ug chitinase/g tissue: ELISA ASSAY RESULTS (ug chitinase/g tissue) ([2]; line Nco-16 (2001/NcoChit), seven days, water 0.555, buffer 0.566)
0.522 ug chitinase/g tissue: ELISA ASSAY RESULTS (ug chitinase/g tissue) ([2]; line Bam-9 (2001/BamChit), seven days, water —, buffer —) | ELISA ASSAY RESULTS (ug chitinase/g tissue) ([2]; line Bam-25 (2001/BamChit), seven days, water —, buffer —)
1.052 ug chitinase/g tissue: ELISA ASSAY RESULTS (ug chitinase/g tissue) ([2]; line Sal-9 (2001/SalChit), seven days, water —, buffer —)
0.760 ug chitinase/g tissue: ELISA ASSAY RESULTS (ug chitinase/g tissue) ([2]; line Bam-19 (2001/BamChit), seven days, water —, buffer —)
0.047 ug chitinase/g tissue: ELISA ASSAY RESULTS (ug chitinase/g tissue) ([2]; line Sal-4 (2001/SalChit), seven days, water —, buffer —)
—: ELISA ASSAY RESULTS (ug chitinase/g tissue) ([2]; line Bam-1 (2001/BamChit), leaves harvested after seven days, water 0.066, buffer —) | ELISA ASSAY RESULTS (ug chitinase/g tissue) ([2]; line Bam-3 (2001/BamChit), seven days, water —, buffer —) | ELISA ASSAY RESULTS (ug chitinase/g tissue) ([2]; line Bam-4 (2001/BamChit), seven days, water —, buffer —) | ELISA ASSAY RESULTS (ug chitinase/g tissue) ([2]; line Bam-8 (2001/BamChit), seven days, water —, buffer —) | ELISA ASSAY RESULTS (ug chitinase/g tissue) ([2]; line Bam-12 (2001/BamChit), seven days, water —, buffer —) | ELISA ASSAY RESULTS (ug chitinase/g tissue) ([2]; line Bam-14 (2001/BamChit), seven days, water —, buffer —) | ELISA ASSAY RESULTS (ug chitinase/g tissue) ([2]; line Bam-15 (2001/BamChit), seven days, water —, buffer —) | ELISA ASSAY RESULTS (ug chitinase/g tissue) ([2]; line Bam-17 (2001/BamChit), seven days, water —, buffer —) | ELISA ASSAY RESULTS (ug chitinase/g tissue) ([2]; line Bam-21 (2001/BamChit), seven days, water —, buffer —) | ELISA ASSAY RESULTS (ug chitinase/g tissue) ([2]; line Bam-23 (2001/BamChit), seven days, water —, buffer —) | ELISA ASSAY RESULTS (ug chitinase/g tissue) ([2]; line Bam-24 (2001/BamChit), seven days, water —, buffer —) | ELISA ASSAY RESULTS (ug chitinase/g tissue) ([2]; line Bam-26 (2001/BamChit), seven days, water —, buffer —) | ELISA ASSAY RESULTS (ug chitinase/g tissue) ([2]; line Nco-2 (2001/NcoChit), seven days, water —, buffer —) | ELISA ASSAY RESULTS (ug chitinase/g tissue) ([2]; line Nco-3 (2001/NcoChit), seven days, water —, buffer —) | ELISA ASSAY RESULTS (ug chitinase/g tissue) ([2]; line Nco-5 (2001/NcoChit), seven days, water —, buffer —) | ELISA ASSAY RESULTS (ug chitinase/g tissue) ([2]; line Nco-8 (2001/NcoChit), seven days, water —, buffer —) | ELISA ASSAY RESULTS (ug chitinase/g tissue) ([2]; line Nco-9 (2001/NcoChit), seven days, water —, buffer —) | ELISA ASSAY RESULTS (ug chitinase/g tissue) ([2]; line Nco-10 (2001/NcoChit), seven days, water —, buffer —) | ELISA ASSAY RESULTS (ug chitinase/g tissue) ([2]; line Nco-11 (2001/NcoChit), seven days, water —, buffer —) | ELISA ASSAY RESULTS (ug chitinase/g tissue) ([2]; line Nco-15 (2001/NcoChit), seven days, water —, buffer —) | ELISA ASSAY RESULTS (ug chitinase/g tissue) ([2]; line Nco-17 (2001/NcoChit), seven days, water —, buffer —) | ELISA ASSAY RESULTS (ug chitinase/g tissue) ([2]; line Sal-2 (2001/SalChit), seven days, water —, buffer —) | ELISA ASSAY RESULTS (ug chitinase/g tissue) ([2]; line Sal-3 (2001/SalChit), seven days, water —, buffer —) | ELISA ASSAY RESULTS (ug chitinase/g tissue) ([2]; line Sal-5 (2001/SalChit), seven days, water —, buffer —) | ELISA ASSAY RESULTS (ug chitinase/g tissue) ([2]; line Sal-7 (2001/SalChit), seven days, water —, buffer —) | ELISA ASSAY RESULTS (ug chitinase/g tissue) ([2]; line Sal-8 (2001/SalChit), seven days, water —, buffer —) | ELISA ASSAY RESULTS (ug chitinase/g tissue) ([2]; line Sal-11 (2001/SalChit), seven days, water —, buffer —) | ELISA ASSAY RESULTS (ug chitinase/g tissue) ([2]; line Sal-12 (2001/SalChit), seven days, water —, buffer —) | ELISA ASSAY RESULTS (ug chitinase/g tissue) ([2]; line Sal-13 (2001/SalChit), seven days, water —, buffer —) | ELISA ASSAY RESULTS (ug chitinase/g tissue) ([2]; line Sal-14 (2001/SalChit), seven days, water —, buffer —) | ELISA ASSAY RESULTS (ug chitinase/g tissue) ([2]; line Sal-15 (2001/SalChit), seven days, water —, buffer —)
0.093 ug chitinase/g tissue: ELISA ASSAY RESULTS (ug chitinase/g tissue) ([2]; line Bam-10 (2001/BamChit), seven days, water 0.059, buffer 0.084)
0.690 ug chitinase/g tissue: ELISA ASSAY RESULTS (ug chitinase/g tissue) ([2]; line Bam-16 (2001/BamChit), seven days, water —, buffer —)
elevated levels of mRNA: level of mRNA of the chimeric gene (GUS, AHAS or BT primer), primer extension assay [1]
